The source of these data is PubChem BioAssay (NCI).

The structures appear in SMILES notation.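 Protocol summary: plate cells (96-well), add compound at 5 concentrations, incubate 48 h, interpolate endpoints linearly. At the GI50, growth is halved. At the TGI there is no net growth.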 Bounds are passed on as bounds.

Among the test systems are NCI-H522 lung; OVCAR-3 ovarian; A549 NSCLC; CAKI-1 renal; HCT-15 colon; DU-145 prostate; SF-295 CNS; HCT-116 colon; MOLT-4 leukemia.
Assay in all cases: NCI-60 cell line screen, 48 h

For `CCC(=O)N1C/C(=C/c2ccc(Br)cc2)C(=O)/C(=C/c2ccc(Br)cc2)C1`, the GI50 with NCI-H522 lung is 1.4 µM; in the experiment with OVCAR-3 ovarian, 0.588 µM; in the experiment on A549 NSCLC, 0.745 µM; in the experiment on CAKI-1 renal, 1.21 µM; with HCT-15 colon, 0.295 µM; in the experiment with DU-145 prostate it was 1.02 µM. Moreover, the GI50 is 1.6 µM with SF-295 CNS, under 0.0417 µM with HCT-116 colon and 1.06 µM with MOLT-4 leukemia. The TGI with NCI-H522 lung amounted to 2.8 µM; with OVCAR-3 ovarian, 1.56 µM; with A549 NSCLC, 10.8 µM; in the experiment with HCT-15 colon, 1.31 µM; with DU-145 prostate, 3.22 µM; in the experiment with SF-295 CNS, 4.3 µM. In addition, the TGI in the experiment with HCT-116 colon was found to be 0.311 µM; in the experiment with MOLT-4 leukemia it was 5.69 µM.
With `Cn1cc(C2=C(c3cn(CCCN)c4ccccc34)C(=O)NC2=O)c2ccccc21`, the GI50 was 4.12 µM with NCI-H522 lung; 5.86 µM in the experiment on OVCAR-3 ovarian; 5.65 µM in the experiment with A549 NSCLC; 4.94 µM in the experiment with CAKI-1 renal; 5.14 µM in the experiment on HCT-15 colon; 6.71 µM with DU-145 prostate. For the same compound, the values for the GI50 in the experiment on SF-295 CNS, in the experiment on HCT-116 colon and in the experiment with MOLT-4 leukemia were 7.38 µM, 3.48 µM and 6.06 µM, respectively. Also, the TGI is 9.13 µM in the experiment on NCI-H522 lung; 16.2 µM with OVCAR-3 ovarian; 17.4 µM with A549 NSCLC; over 15.9 µM in the experiment on CAKI-1 renal; over 25 µM with HCT-15 colon; 18.7 µM with DU-145 prostate. Moreover, the TGI is over 25 µM in the experiment on SF-295 CNS, 10.1 µM in the experiment with HCT-116 colon and 18.5 µM in the experiment with MOLT-4 leukemia.
As to `CNC(=O)c1c(F)cccc1Nc1nc(Nc2cc3c(cc2OC)CCN3C(=O)CN(C)C)nc2[nH]ccc12`, the GI50 with NCI-H522 lung is 1.56 µM; with OVCAR-3 ovarian, 15 µM; with A549 NSCLC, 1.74 µM; in the experiment on CAKI-1 renal, 16.1 µM; with HCT-15 colon, 3.08 µM; in the experiment on DU-145 prostate, 7.37 µM. In addition, the GI50 is 19 µM in the experiment on SF-295 CNS, 1.54 µM in the experiment with HCT-116 colon and 3.01 µM in the experiment on MOLT-4 leukemia. The TGI was 3.63 µM with NCI-H522 lung; 30.8 µM with OVCAR-3 ovarian; 14.4 µM in the experiment with A549 NSCLC; 45.7 µM with CAKI-1 renal; 19 µM with HCT-15 colon; 24.9 µM in the experiment on DU-145 prostate. Also, the TGI with SF-295 CNS was 38.2 µM; in the experiment with HCT-116 colon, 3.33 µM; in the experiment with MOLT-4 leukemia, over 24.7 µM.
Regarding `COc1ccc(S(=O)(=O)Nc2c(/C=C\c3cc(OC)c(OC)c(OC)c3)ccc(OC)c2O)cc1`, the GI50 in the experiment on NCI-H522 lung is 0.0202 µM; in the experiment with OVCAR-3 ovarian, 0.0338 µM; in the experiment with A549 NSCLC it was 0.0459 µM; in the experiment on CAKI-1 renal, 0.0516 µM; in the experiment on HCT-15 colon, 0.0366 µM; in the experiment with DU-145 prostate it was 0.0425 µM. Besides, the figures for the GI50 with SF-295 CNS, in the experiment with HCT-116 colon and in the experiment with MOLT-4 leukemia were 0.0339 µM, 0.032 µM and 0.0423 µM, respectively. For the same compound, the TGI in the experiment with NCI-H522 lung was 0.0536 µM; in the experiment with OVCAR-3 ovarian, 1.21 µM; in the experiment with A549 NSCLC, over 100 µM; in the experiment with CAKI-1 renal it was 79.8 µM; with HCT-15 colon, over 100 µM; in the experiment on DU-145 prostate, over 100 µM. The TGI with SF-295 CNS, in the experiment with HCT-116 colon and with MOLT-4 leukemia was over 100 µM in each case.
On to `O=C(Nc1cc(Cl)cc(Cl)c1)c1cccc(NC2=C(Cl)C(=O)N(Cc3ccccc3)C2=O)c1`, for which the GI50 in the experiment on NCI-H522 lung is 28.5 µM; in the experiment with OVCAR-3 ovarian it was 21.8 µM; in the experiment with A549 NSCLC, 36.3 µM; with CAKI-1 renal, 30.3 µM; with HCT-15 colon, 24 µM; in the experiment with DU-145 prostate, 32.1 µM. For the same compound, the GI50 with SF-295 CNS was 34.2 µM; in the experiment on HCT-116 colon, 12 µM; with MOLT-4 leukemia, 4.15 µM. In addition, the TGI with NCI-H522 lung, in the experiment with OVCAR-3 ovarian, in the experiment with A549 NSCLC, with CAKI-1 renal, in the experiment with HCT-15 colon and with DU-145 prostate was over 100 µM in each case. Also, the TGI in the experiment with SF-295 CNS, with HCT-116 colon and with MOLT-4 leukemia was over 100 µM each time.
For `O=C1C=C(OCC=C(C(F)(F)F)C(F)(F)F)c2ccccc2C1=O`, the GI50 in the experiment on NCI-H522 lung was 1.41 µM; in the experiment with OVCAR-3 ovarian it was 1.78 µM; with A549 NSCLC, 5.91 µM; in the experiment with CAKI-1 renal, 3.15 µM; in the experiment on HCT-15 colon, 2.06 µM; in the experiment on DU-145 prostate it was 1.75 µM. Moreover, the GI50 was 14.6 µM in the experiment with SF-295 CNS, 2.07 µM in the experiment on HCT-116 colon and 2.35 µM with MOLT-4 leukemia. The TGI amounted to 2.92 µM with NCI-H522 lung; 3.39 µM in the experiment with OVCAR-3 ovarian; 27 µM with A549 NSCLC; 10.4 µM with CAKI-1 renal; 5.7 µM in the experiment with HCT-15 colon; 3.17 µM in the experiment with DU-145 prostate. Moreover, the TGI turned out to be 30.3 µM in the experiment with SF-295 CNS, 5.08 µM in the experiment with HCT-116 colon and 5.38 µM in the experiment with MOLT-4 leukemia.
